Literature values, collected in patent publication US8420699B1, “Composition and methods of treatment using deionized and ozonated solution” (priority 2002, dated 2013).

Question: For `O=[O+][O-]` [ozone], which half-life of ozone (at 68° F.) is on record?
Answer: The half-life of ozone was 45 min.

Question: And the “concentrated effectiveness relative to initial value” (in two hours after generation)?
Answer: The value was 16 % of its initial value.
